In brackets after ≈: the same amount, converted by molar mass.
Legend:
Test in all cases: agar-dilution MIC
Format in all cases: cell-based
[1] = test system: Klebsiella pneumoniae X68
[2] = test system: Haemophilus influenzae C.L.
[3] = test system: Streptococcus sp. group D 2041
[4] = test system: Klebsiella pneumoniae KAE
[5] = test system: Streptococcus faecium ATCC 9790
[6] = test system: Streptococcus pyogenes C203
[7] = test system: Haemophilus influenzae 76

Compound `CN[C@H](CC(C)C)C(=O)N[C@H]1C(=O)N[C@@H](CC(N)=O)C(=O)N[C@H]2C(=O)N[C@H]3C(=O)N[C@H](C(=O)N[C@H](C(=O)O)c4cc(O)cc(O)c4-c4cc3ccc4O)[C@H](O)c3ccc(c(Cl)c3)Oc3cc2cc(c3O[C@@H]2O[C@H](CO)[C@@H](O)[C@H](O)[C@H]2O[C@H]2C[C@](C)(N)[C@H](O)[C@H](C)O2)Oc2ccc(cc2Cl)[C@H]1O` [Vancomycin] has an MIC [1] greater than 128 µg/mL, an MIC [2] of 64 µg/mL (≈ 44.2 µM) and an MIC [3] of 4 µg/mL (≈ 2.76 µM). It also gave an MIC [4] greater than 128 µg/mL, an MIC [5] of 1 µg/mL (≈ 0.69 µM) and an MIC [6] of 0.5 µg/mL (≈ 0.345 µM). It also gave an MIC [7] of 128 µg/mL (≈ 88.3 µM).

Reference: patent US4547488A, “Antibiotic M43D, pharmaceutical compositions and method of use” (priority 1984, dated 1985)
